# In ChEMBL document CHEMBL1158425 (Bioorg Med Chem Lett, 2009):
# How the values were obtained:
# A2780 [1] = assay: Growth inhibition of human adriamycin and doxorubicin-resistant A2780 cells after 72 hrs; format: functional, cell-based; settings: A2780, 72 h
# [2] = Ratio of IC50 for drug to IC50 for paclitaxel against human paclitaxel-resistant A2780TC3 cells overexpressing class 3 beta-tubulin; format: functional
# [3] = Ratio of IC50 for drug to IC50 for IDN 5390 against human paclitaxel-resistant A2780TC3 cells overexpressing class 3 beta-tubulin; format: functional
# [4] = Growth inhibition of human paclitaxel-resistant A2780TC1 cells overexpressing class 3 beta-tubulin after 72 hrs; format: functional, cell-based; settings: A2780TC1, 72 h
# A2780 [5] = assay: Ratio of IC50 for drug to IC50 for paclitaxel against human adriamycin and doxorubicin-resistant A2780 cells; format: functional
# A2780 [6] = assay: Ratio of IC50 for drug to IC50 for IDN 5390 against human adriamycin and doxorubicin-resistant A2780 cells; format: functional
# [7] = Growth inhibition of human paclitaxel-resistant A2780TC3 cells overexpressing class 3 beta-tubulin after 72 hrs; format: functional, cell-based; settings: A2780TC3, 72 h
# A2780 [8] = assay: Growth inhibition of human topotecan-resistant A2780 cells after 72 hrs; format: functional, cell-based; settings: A2780, 72 h
# A2780 [9] = assay: Growth inhibition of human wild type A2780 cells after 72 hrs; format: functional, cell-based; settings: A2780, 72 h
# A2780 [10] = assay: Growth inhibition of human cisplatin-resistant A2780 cells after 72 hrs; format: functional, cell-based; settings: A2780, 72 h
# [11] = Ratio of IC50 for drug to IC50 for paclitaxel against human paclitaxel-resistant A2780TC1 cells overexpressing class 3 beta-tubulin; format: functional
# A2780 [12] = assay: Resistant factor, IC50 for human paclitaxel-resistant A2780TC1 cells overexpressing class 3 beta-tubulin to IC50 for human wild type A2780 cells; format: functional, cell-based
# A2780 [13] = assay: Resistant factor, IC50 for human paclitaxel-resistant A2780TC3 cells overexpressing class 3 beta-tubulin to IC50 for human wild type A2780 cells; format: functional
# [14] = Ratio of IC50 for IDN 5390 to IC50 for paclitaxel against human paclitaxel-resistant A2780TC3 cells overexpressing class 3 beta-tubulin; format: functional
IC50 (A2780 [1]) [nM],IC50 (A2780 [8]) [nM],IC50 (A2780 [9]) [nM],IC50 (A2780 [10]) [nM],Structure (SMILES),Ratio IC50 [2],Ratio IC50 [3],IC50 [4] [nM],Ratio IC50 (A2780 [5]),Ratio IC50 (A2780 [6]),IC50 [7] [nM],Ratio IC50 [11],Ratio IC50 (A2780 [12]),Ratio IC50 (A2780 [13]),Ratio IC50 [14]
2220,,,,CC(=O)O[C@@]1([C@@H]2/C(C)=C(/O)C(=O)C3=C(C)[C@@H](OC(=O)[C@H](O)[C@H](C=C(C)C)NC(=O)OC(C)(C)C)C[C@@](O)([C@H]2OC(=O)c2cccc(F)c2)C3(C)C)CO[C@@H]1CCO,24,3,,,,,,,,
452,1.7,4.6,4,CC(=O)O[C@@]1([C@@H]2/C(C)=C(/O)C(=O)C3=C(C)[C@@H](OC(=O)[C@H](O)[C@H](C=C(C)C)NC(=O)OC(C)(C)C)C[C@@](O)([C@H]2OC(=O)c2cccc(Cl)c2)C3(C)C)CO[C@@H]1CCO,24,3,751,2.1,4.3,357,2.3,163,,
604,4.6,5.5,4.1,CC(=O)O[C@@]1([C@@H]2/C(C)=C(/O)C(=O)C3=C(C)[C@@H](OC(=O)[C@H](O)[C@H](CC(C)C)NC(=O)OC(C)(C)C)C[C@@](O)([C@H]2OC(=O)c2cccc(Cl)c2)C3(C)C)CO[C@@H]1CCO,24,3,1800,2.1,4.3,385,2.3,,,
3730,12.8,11.1,11.8,CC(=O)O[C@@]1([C@@H]2/C(C)=C(/O)C(=O)C3=C(C)[C@@H](OC(=O)[C@H](O)[C@H](CC(C)C)NC(=O)OC(C)(C)C)C[C@@](O)([C@H]2OC(=O)c2cccc(F)c2)C3(C)C)CO[C@@H]1CCO,24,3,1500,,,460,2.3,,,
386,2.6,4.6,5.7,COc1cccc(C(=O)O[C@H]2[C@H]([C@]3(OC(C)=O)CO[C@@H]3CCO)/C(C)=C(/O)C(=O)C3=C(C)[C@@H](OC(=O)[C@H](O)[C@H](C=C(C)C)NC(=O)OC(C)(C)C)C[C@]2(O)C3(C)C)c1,24,3,1060,2.1,4.3,490,2.3,,,
356,3.5,6.8,4.3,COc1cccc(C(=O)O[C@H]2[C@H]([C@]3(OC(C)=O)CO[C@@H]3CCO)/C(C)=C(/O)C(=O)C3=C(C)[C@@H](OC(=O)[C@H](O)[C@H](CC(C)C)NC(=O)OC(C)(C)C)C[C@]2(O)C3(C)C)c1,24,3,1120,2.1,4.3,211,2.3,,31,

Structure (SMILES),IC50 (A2780 [1]) [nM],IC50 (A2780 [8]) [nM],IC50 (A2780 [9]) [nM],IC50 (A2780 [10]) [nM],Ratio IC50 [2],Ratio IC50 [3],IC50 [4] [nM],Ratio IC50 (A2780 [5]),Ratio IC50 (A2780 [6]),IC50 [7] [nM],Ratio IC50 [11],Ratio IC50 (A2780 [12]),Ratio IC50 (A2780 [13]),Ratio IC50 [14]
CC(=O)O[C@@]1([C@@H]2/C(C)=C(/O)C(=O)C3=C(C)[C@@H](OC(=O)[C@H](O)[C@H](CC(C)C)NC(=O)OC(C)(C)C)C[C@@](O)([C@H]2OC(=O)c2ccccc2)C3(C)C)CO[C@@H]1CCO,2620,27.5,17.4,16.8,,,2060,,,2240,,,129,8
